Results published in paper PMC5962679 (Frontiers in Cellular and Infection Microbiology, 2018).
pIC50: −log10 of the molar value. Ends that are not written are not given here.

Experiments:
Test in all cases: biochemical
Type in all cases: binding
Details in all cases: for inhibition at 250 µM: 24 h, read-out: Binding percentage
HLA-DRB1*0401 = target: T1, HLA-DRB1*0401 (Homo sapiens, UniProt P01903+P01911, A100K/A169T/F76Y/I96L/K127E/L162R/M171V/N62H/P40V/Q125Y/R42H/S133A/S149N/S66Y/V115G/V209L/W38E)
T1 construct: homozygous lymphoblastoid B-cell lines (International Histocompatibility Working Group); host or cells: human HLA-DRB1*0401 homozygous lymphoblastoid B-cell line

HLA-DRB1*0701 = HLA-DRB1*0701 (Homo sapiens, UniProt P01903+P01911, A100R/A102G/A103Q/D57E/D86V/E43K/F76Y/K127E/L162R/M171V/P40G/Q125H/Q99D/R33Q/R42Y/R54Q/S133A/S66F/T210M/V115G/Y107V/Y59L/Y89S)
HLA-DRB1*1101 = HLA-DRB1*1101 (Homo sapiens, UniProt P01903+P01911, A100R/A169T/A87E/I96F/K41T/L162R/M171V/P40S/Q125H/Q178H/Q39Y/Q99D/R42S/S66Y/T262R/V115G/W38E)
HLA-DRB1*1302 = HLA-DRB1*1302 (Homo sapiens, UniProt P01903+P01911, A100E/A169T/K41T/L162R/M171V/P40S/Q125H/Q178H/Q39Y/Q99D/R42S/S66N/T262R/V115G/W38E/Y61H)
Chain of HLA-DRB1*1302 (P01903 26-254 limits assumed, other chains not shown): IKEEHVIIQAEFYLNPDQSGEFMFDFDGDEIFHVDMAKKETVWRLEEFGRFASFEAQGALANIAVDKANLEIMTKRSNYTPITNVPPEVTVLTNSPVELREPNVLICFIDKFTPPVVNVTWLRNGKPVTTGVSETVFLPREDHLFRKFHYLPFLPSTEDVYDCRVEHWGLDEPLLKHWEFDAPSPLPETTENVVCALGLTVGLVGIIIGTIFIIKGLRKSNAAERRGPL

Chain of HLA-DRB1*1101 (P01903 26-254 limits assumed, other chains not shown): as above

DKSFISEANSFRNEE [compound 39149]
pIC50 (HLA-DRB1*0401): 4.58 | inhibition at 250 µM (HLA-DRB1*0401): 85.8% | inhibition at 250 µM (HLA-DRB1*0701): 42.8% | inhibition at 250 µM (HLA-DRB1*1101): 36.5% | inhibition at 250 µM (HLA-DRB1*1302): 33.5%

KLKYIFKRRKTMKKK [compound 39151]
pIC50 (HLA-DRB1*0401): 4.40 | inhibition at 250 µM (HLA-DRB1*0401): 65.3% | inhibition at 250 µM (HLA-DRB1*0701): 36% | pIC50 (HLA-DRB1*1101): 4.29 | inhibition at 250 µM (HLA-DRB1*1101): 78.5% | inhibition at 250 µM (HLA-DRB1*1302): 13.1%

LKPFYSLETMLMANS [compound 39147]
pIC50 (HLA-DRB1*0401): 5.34 | inhibition at 250 µM (HLA-DRB1*0401): 92.6% | pIC50 (HLA-DRB1*0701): 4.59 | inhibition at 250 µM (HLA-DRB1*0701): 83.2% | pIC50 (HLA-DRB1*1101): 4.64 | inhibition at 250 µM (HLA-DRB1*1101): 79.3% | pIC50 (HLA-DRB1*1302): 4.10 | inhibition at 250 µM (HLA-DRB1*1302): 63%

NVRKFFLNDVSSIRH [compound 39148]
pIC50 (HLA-DRB1*0401): 4.92 | inhibition at 250 µM (HLA-DRB1*0401): 83% | pIC50 (HLA-DRB1*0701): 4.40 | inhibition at 250 µM (HLA-DRB1*0701): 79.9% | pIC50 (HLA-DRB1*1101): 4.08 | inhibition at 250 µM (HLA-DRB1*1101): 73.8% | pIC50 (HLA-DRB1*1302): 5.13 | inhibition at 250 µM (HLA-DRB1*1302): 94.2%

NYEIYIASSSNIYLM [compound 39046]
pIC50 (HLA-DRB1*0401): 4.55 | inhibition at 250 µM (HLA-DRB1*0401): 91.8% | pIC50 (HLA-DRB1*0701): 4.63 | inhibition at 250 µM (HLA-DRB1*0701): 91.5% | pIC50 (HLA-DRB1*1101): 3.92 | inhibition at 250 µM (HLA-DRB1*1101): 82.9% | pIC50 (HLA-DRB1*1302): 4.53 | inhibition at 250 µM (HLA-DRB1*1302): 92.8%

QTAFRKFFKKIISLG [compound 39150]
pIC50 (HLA-DRB1*0401): 4.47 | inhibition at 250 µM (HLA-DRB1*0401): 83.6% | pIC50 (HLA-DRB1*0701): 4.29 | inhibition at 250 µM (HLA-DRB1*0701): 67.2% | pIC50 (HLA-DRB1*1101): 4.08 | inhibition at 250 µM (HLA-DRB1*1101): 87.6% | inhibition at 250 µM (HLA-DRB1*1302): 7.7%

TPIIVKYDNTHAKNR [compound 39048]
pIC50 (HLA-DRB1*0401): 4.92 | inhibition at 250 µM (HLA-DRB1*0401): 90.7% | inhibition at 250 µM (HLA-DRB1*0701): 10.5% | inhibition at 250 µM (HLA-DRB1*1101): 16.8% | inhibition at 250 µM (HLA-DRB1*1302): 3.3%
